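Briefly, cells in 96-well plates were exposed to five compound concentrations for 48 h, and endpoints were estimated by linear interpolation. Abbreviation: GI50, concentration required for 50% inhibition of growth. At the TGI there is no net growth.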
Key:
Test in all cases: NCI tumour cell line growth inhibition, 48 h
TK-10 renal = system: TK-10 renal
SW-620 colon = system: SW-620 colon
DU-145 prostate = system: DU-145 prostate
SF-539 CNS = system: SF-539 CNS
RPMI-8226 leukemia = system: RPMI-8226 leukemia
SK-MEL-5 melanoma = system: SK-MEL-5 melanoma
SNB-19 CNS = system: SNB-19 CNS
SK-MEL-28 melanoma = system: SK-MEL-28 melanoma
MALME-3M melanoma = system: MALME-3M melanoma
HOP-92 NSCLC = system: HOP-92 NSCLC
U251 CNS = system: U251 CNS
HT29 colon = system: HT29 colon
UACC-62 melanoma = system: UACC-62 melanoma
PC-3 prostate = system: PC-3 prostate
LOX IMVI melanoma = system: LOX IMVI melanoma
HL-60(TB) leukemia = system: HL-60(TB) leukemia
BT-549 breast = system: BT-549 breast
ACHN renal = system: ACHN renal
UACC-257 melanoma = system: UACC-257 melanoma
OVCAR-4 ovarian = system: OVCAR-4 ovarian
SK-OV-3 ovarian = system: SK-OV-3 ovarian
HCT-116 colon = system: HCT-116 colon
IGROV1 ovarian = system: IGROV1 ovarian
A498 renal = system: A498 renal
SF-268 CNS = system: SF-268 CNS
A549 NSCLC = system: A549 NSCLC
M14 melanoma = system: M14 melanoma
OVCAR-8 ovarian = system: OVCAR-8 ovarian
COLO 205 colon = system: COLO 205 colon
NCI-H522 lung = system: NCI-H522 lung
OVCAR-5 ovarian = system: OVCAR-5 ovarian
NCI-H460 lung = system: NCI-H460 lung
HCT-15 colon = system: HCT-15 colon
KM12 colon = system: KM12 colon
NCI-H23 lung = system: NCI-H23 lung
EKVX NSCLC = system: EKVX NSCLC
CCRF-CEM leukemia = system: CCRF-CEM leukemia
MOLT-4 leukemia = system: MOLT-4 leukemia
MCF7 breast = system: MCF7 breast
NCI/ADR-RES ovarian = system: NCI/ADR-RES ovarian
786-0 renal = system: 786-0 renal
SK-MEL-2 melanoma = system: SK-MEL-2 melanoma
T-47D breast = system: T-47D breast
SN12C renal = system: SN12C renal
HOP-62 NSCLC = system: HOP-62 NSCLC
MDA-MB-231 breast = system: MDA-MB-231 breast
NCI-H226 lung = system: NCI-H226 lung
RXF 393 renal = system: RXF 393 renal
HS 578T breast = system: HS 578T breast
UO-31 renal = system: UO-31 renal

O=C(CC(Cl)=C(Cl)Cl)Nc1ccccc1
GI50 (TK-10 renal): > 100 µM
TGI (TK-10 renal): > 100 µM
GI50 (SW-620 colon): > 100 µM
TGI (SW-620 colon): > 100 µM
GI50 (DU-145 prostate): > 100 µM
TGI (DU-145 prostate): > 100 µM
GI50 (SF-539 CNS): > 100 µM
TGI (SF-539 CNS): > 100 µM
GI50 (RPMI-8226 leukemia): > 100 µM
TGI (RPMI-8226 leukemia): > 100 µM
GI50 (SK-MEL-5 melanoma): > 100 µM
TGI (SK-MEL-5 melanoma): > 100 µM
GI50 (SNB-19 CNS): > 100 µM
TGI (SNB-19 CNS): > 100 µM
GI50 (SK-MEL-28 melanoma): > 100 µM
TGI (SK-MEL-28 melanoma): > 100 µM
GI50 (MALME-3M melanoma): > 100 µM
TGI (MALME-3M melanoma): > 100 µM
TGI (HOP-92 NSCLC): > 100 µM
GI50 (U251 CNS): > 100 µM
TGI (U251 CNS): > 100 µM
GI50 (HT29 colon): > 100 µM
TGI (HT29 colon): > 100 µM
GI50 (UACC-62 melanoma): > 100 µM
TGI (UACC-62 melanoma): > 100 µM
GI50 (PC-3 prostate): > 100 µM
TGI (PC-3 prostate): > 100 µM
GI50 (LOX IMVI melanoma): > 100 µM
TGI (LOX IMVI melanoma): > 100 µM
GI50 (HL-60(TB) leukemia): > 100 µM
TGI (HL-60(TB) leukemia): > 100 µM
GI50 (BT-549 breast): > 100 µM
TGI (BT-549 breast): > 100 µM
GI50 (ACHN renal): > 100 µM
TGI (ACHN renal): > 100 µM
GI50 (UACC-257 melanoma): > 100 µM
TGI (UACC-257 melanoma): > 100 µM
GI50 (OVCAR-4 ovarian): > 100 µM
TGI (OVCAR-4 ovarian): > 100 µM
GI50 (SK-OV-3 ovarian): > 100 µM
TGI (SK-OV-3 ovarian): > 100 µM
GI50 (HCT-116 colon): > 100 µM
TGI (HCT-116 colon): > 100 µM
GI50 (IGROV1 ovarian): > 100 µM
TGI (IGROV1 ovarian): > 100 µM
GI50 (A498 renal): > 100 µM
TGI (A498 renal): > 100 µM
GI50 (SF-268 CNS): > 100 µM
TGI (SF-268 CNS): > 100 µM
GI50 (A549 NSCLC): > 100 µM
TGI (A549 NSCLC): > 100 µM
GI50 (M14 melanoma): > 100 µM
TGI (M14 melanoma): > 100 µM
GI50 (OVCAR-8 ovarian): > 100 µM
TGI (OVCAR-8 ovarian): > 100 µM
GI50 (COLO 205 colon): > 100 µM
TGI (COLO 205 colon): > 100 µM
GI50 (NCI-H522 lung): > 100 µM
TGI (NCI-H522 lung): > 100 µM
GI50 (OVCAR-5 ovarian): > 100 µM
TGI (OVCAR-5 ovarian): > 100 µM
GI50 (NCI-H460 lung): > 100 µM
TGI (NCI-H460 lung): > 100 µM
GI50 (HCT-15 colon): > 100 µM
TGI (HCT-15 colon): > 100 µM
GI50 (KM12 colon): > 100 µM
TGI (KM12 colon): > 100 µM
GI50 (NCI-H23 lung): > 100 µM
TGI (NCI-H23 lung): > 100 µM
GI50 (EKVX NSCLC): > 100 µM
TGI (EKVX NSCLC): > 100 µM
GI50 (CCRF-CEM leukemia): > 100 µM
TGI (CCRF-CEM leukemia): > 100 µM
GI50 (MOLT-4 leukemia): > 100 µM
TGI (MOLT-4 leukemia): > 100 µM
GI50 (MCF7 breast): > 100 µM
TGI (MCF7 breast): > 100 µM
GI50 (NCI/ADR-RES ovarian): > 100 µM
TGI (NCI/ADR-RES ovarian): > 100 µM
GI50 (786-0 renal): > 100 µM
TGI (786-0 renal): > 100 µM
GI50 (SK-MEL-2 melanoma): > 100 µM
TGI (SK-MEL-2 melanoma): > 100 µM
GI50 (T-47D breast): > 100 µM
TGI (T-47D breast): > 100 µM
GI50 (SN12C renal): > 100 µM
TGI (SN12C renal): > 100 µM
GI50 (HOP-62 NSCLC): > 100 µM
TGI (HOP-62 NSCLC): > 100 µM
GI50 (MDA-MB-231 breast): > 100 µM
TGI (MDA-MB-231 breast): > 100 µM
GI50 (NCI-H226 lung): > 100 µM
TGI (NCI-H226 lung): > 100 µM
GI50 (RXF 393 renal): > 100 µM
TGI (RXF 393 renal): > 100 µM
GI50 (HS 578T breast): > 100 µM
TGI (HS 578T breast): > 100 µM
GI50 (UO-31 renal): > 100 µM
TGI (UO-31 renal): > 100 µM
